From patent US7138425B2, “Phthalimide carboxylic acid derivatives” (Oxford Glycoscience (UK) Ltd., priority 2002, dated 2006)

Columns and labels:
human endothelial cells = test: Angiogenesis assay (AngioKit, tubule formation, PECAM-1 staining); assay type: cell-based; conditions: Endothelial cell, 264 h, AngioKit co-culture, tubule formation on day 11, PECAM-1 staining relative to untreated control, read-out: Inhibition of angiogenesis (IC50)
Excerpt: A commercial angiogenesis assay for analysing the angiogenic or anti-angiogenic properties of test compounds (AngioKit catalogue no. ZHA-1000, TCS CellWorks Ltd, Buckingham, U.K) was used. In this assay, human endothelial cells were co-cultured with other human cells in a specifically designed medium. The endothelial cells initially form small islands within the culture matrix. They subsequently proliferate and then enter a migratory phase during which they move through the matrix to form threadlike tubule structures. These gradually join up (by 12–14 days) to form networks of […] tubules which closely resemble a capillary bed structure. These tubules stain positive for von Willebrand's Factor, Platelet Endothelial Cell Adhesion Molecule-1 (PECAM-1 or CD31) and Intercellular Adhesion Molecule-2 (ICAM-2).
The assay is supplied as growing cultures at the earliest stage of tubule formation in a 24 well plate format It is designed so that test compounds and conditioned media can be added to the cultures within individual wells. The resulting effect on tubule formation can then be monitored. Positive and negative test agents are provided in the kit, e.g. Vascular Endothelial Growth Factor (VEGF) and sumarin. All reagents were included as part of the kit and the assay was performed according to the protocol supplied by TCS CellWorks Ltd. Briefly, on day 1, fresh growth medium, medium plus control agent or medium plus test compound was added to the cells and the cultures were incubated at 37° C., 5% CO2. […] The specified medium was changed at days 4, 7 and 9 and the cells were monitored for growth. On day 11, the cells were washed with Dulbecco's Phosphate-Buffered Saline (PBS) and fixed using 70% ethanol (−20° C.) for 30 min at room temperature. After fixing, the cells were washed and treated with blocking buffer, 1% BSA in PBS. The cells were stained for PECAM-1 on the same day, following standard immunohistochemistry procedures well known to those skilled in the art, using mouse anti-human CD31 as the primary antibody and a goat anti-mouse IgG alkaline phosphate conjugate. Tubule formation was quantitatively assessed by measuring PECAM-1 positive staining using the image analysis program “Matrox inspector” to evaluate the percentage tubule staining relative to an untreated control.

human heparanase = target: T1, human heparanase (Homo sapiens, UniProt Q9Y251); test: Heparanase assay (bFGF binding to heparan sulfate, plate ELISA); assay type: biochemical; conditions: human heparanase expressed in insect cells, pH 5.5, 2 h at 37° C.; read-out: Inhibition of Heparanase (IC50)
T1 construct: made in house; host or cells: insect cells
T1 sequence (Q9Y251 158-543 limits assumed): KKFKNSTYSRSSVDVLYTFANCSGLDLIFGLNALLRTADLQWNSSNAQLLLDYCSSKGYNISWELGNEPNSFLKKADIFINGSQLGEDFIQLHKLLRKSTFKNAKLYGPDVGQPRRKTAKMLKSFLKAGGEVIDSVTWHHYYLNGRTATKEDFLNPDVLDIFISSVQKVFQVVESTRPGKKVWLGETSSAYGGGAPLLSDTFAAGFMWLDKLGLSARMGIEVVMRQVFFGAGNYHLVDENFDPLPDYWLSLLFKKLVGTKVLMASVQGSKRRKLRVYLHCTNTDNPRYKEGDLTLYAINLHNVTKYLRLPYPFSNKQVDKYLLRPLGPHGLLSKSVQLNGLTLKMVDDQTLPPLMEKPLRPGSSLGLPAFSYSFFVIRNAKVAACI
T1 sequence (Q9Y251 36-109 limits assumed): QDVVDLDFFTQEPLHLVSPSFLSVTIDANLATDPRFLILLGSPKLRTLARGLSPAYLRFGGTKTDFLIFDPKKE
Protocol: The assay is based upon the specific binding of basic fibroblast growth factor (bFGF) to heparan sulfate. […] Heparan sulfate will ordinarly adhere to plastic well plate surfaces. Following cleavage of high molecular weight heparan sulfate by heparanase, the smaller material generated will no longer adhere to the surface of a well plate. Thus, upon addition to the plate of bFGF, heparanase activity can be followed as a reduction in bFGF binding.
Nunc Maxisorp 96-well plates are coated for 16 h at room temperature with 100 μl/well 0.04 mg/ml heparan sulfate in PBS. The wells are then aspirated and blocked for 1 h with 200 μl/well 1% BSA-PBS. Following five washes with 0.01% BSA, 0.05% Tween20 PBS (wash buffer), 100 μl of recombinant human basic FGF (90 ng/ml in 0.1% BSA/PBS) is added per well and the plate is incubated at room temperature for 1 h.
The human heparanase used is expressed in insect cells. The wells are washed again with wash buffer and 100 μl of bFGF antibody-horse radish peroxidase conjugate is added. The plate is then incubated at room temperature for 1 h and subsequently washed five times with wash buffer. 100 μl of TMB peroxidase substrate is added and the colour allowed to develop for 10 min. The reaction is stopped with 50 μl 1M H2SO4 and the colour intensity is read at 450 nm on a plate reader.

| Compound | IC50 (human endothelial cells) | IC50 (human heparanase) |
| --- | --- | --- |
| O=C(O)c1ccc2c(c1)C(=O)N(c1cccc(-c3nc4ccccc4o3)c1)C2=O [Example 1, 2-[3-(Benzoxazol-2-yl)phenyl]-2,3-dihydro-1,3-dioxo-1H-isoindole-5-carboxylic acid] | 40 µM | – |
| COc1ccc(-c2nc3cc(-c4ccccc4)ccc3o2)cc1N1C(=O)c2ccc(C(=O)O)cc2C1=O [Example 9, 2-[2-Methoxy-5-(5-phenylbenzoxazol-2-yl)phenyl]-1,3-dioxo-2,3-dihydro-1H-isoindole-5-carboxylic acid] | 1 µM | – |
| COc1ccc(-c2ccc3oc(-c4ccc(OC)c(N5C(=O)c6ccc(C(=O)O)cc6C5=O)c4)nc3c2)cc1 [Example 27, 2-[2-Methoxy-5-[5-(4-methoxy)phenylbenzoxazol-2-yl]phenyl]-1,3-dioxo-2,3-dihydro-1H-isoindole-5-carboxylic acid] | 15 µM | – |
| COc1ccc(N2C(=O)c3ccc(C(=O)O)cc3C2=O)cc1-c1nc2cc(-c3cc(F)cc(F)c3)ccc2o1 [Example 104, 2-[4-Methoxy-5-[5-(3,5-difluorophenyl)benzoxazol-2-yl]phenyl]-1,3-dioxo-2,3-dihydro-1H-isoindole-5-carboxylic acid] | 0.75 µM | – |
| COc1ccc(N2C(=O)c3ccc(C(=O)O)cc3C2=O)cc1-c1nc2cc(-c3ccc4c(c3)OCO4)ccc2o1 [Example 105, 2-[4-Methoxy-5-[5-(3,4-methylenedioxyphenyl)benzoxazol-2-yl]phenyl]-1,3-dioxo-2,3-dihydro-1H-isoindole-5-carboxylic acid] | 3 µM | – |
| CCCNc1ccc(N2C(=O)c3ccc(C(=O)O)cc3C2=O)cc1-c1nc2cc(-c3ccc(Cl)cc3)ccc2o1 [Example 112, 2-[4-Propylamino-5-[5-(4-chlorophenyl)benzoxazol-2-yl]phenyl]-1,3-dioxo-2,3-dihydro-1H-isoindole-5-carboxylic acid] | 2 µM | – |
| CCCNc1ccc(N2C(=O)c3ccc(C(=O)O)cc3C2=O)cc1-c1nc2cc(-c3ccc(F)cc3)ccc2o1 [Example 115, 2-[4-Propylamino-5-[5-(4-fluorophenyl)benzoxazol-2-yl]phenyl]-1,3-dioxo-2,3-dihydro-1H-isoindole-5-carboxylic acid] | 0.25 µM | – |
| CCCNc1ccc(N2C(=O)c3ccc(C(=O)O)cc3C2=O)cc1-c1nc2cc(-c3ccc(OC(F)(F)F)cc3)ccc2o1 [Example 116, 2-[4-Propylamino-5-[5-(4-trifluoromethoxy)phenylbenzoxazol-2-yl]phenyl]-1,3-dioxo-2,3-dihydro-1H-isoindole-5-carboxylic acid] | 0.1 µM | – |

Now from value to molecule:

| IC50 (human endothelial cells) | IC50 (human heparanase) | Compound |
| --- | --- | --- |
| 5 µM | 0.7 µM | O=C(O)c1ccc2c(c1)C(=O)N(c1cccc(-c3nc4cc5ccccc5cc4o3)c1)C2=O [Example 2, 2-[3-(Naphth[2,3-d]oxazol-2-yl)phenyl]-2,3-dihydro-1,3-dioxo-1H-isoindole-5-carboxylic acid] |
| 1 µM | 0.5 µM | COc1ccc(-c2nc3cc(-c4cc5ccccc5o4)ccc3o2)cc1N1C(=O)c2ccc(C(=O)O)cc2C1=O [Example 15, 2-[2-Methoxy-5-[5-(benzofuran-2-yl)benzoxazol-2-yl]phenyl]-1,3-dioxo-2,3-dihydro-1H-isoindole-5-carboxylic acid] |
| 5 µM | 0.8 µM | CCCNc1ccc(N2C(=O)c3ccc(C(=O)O)cc3C2=O)cc1-c1nc2ccc(C)cc2o1 [Example 65, 2-[3-(6-Methylbenzoxazol-2-yl)-4-propylaminophenyl]-1,3-dioxo-2,3-dihydro-1H-isoindole-5-carboxylic acid] |
| 2 µM | 0.8 µM | CCCNc1ccc(N2C(=O)c3ccc(C(=O)O)cc3C2=O)cc1-c1nc2ccc(F)cc2o1 [Example 66, 2-[3-(6-Fluorobenzoxazol-2-yl)-4-propylaminophenyl]-1,3-dioxo-2,3-dihydro-1H-isoindole-5-carboxylic acid] |
| 0.5 µM | 0.5 µM | CCCNc1ccc(N2C(=O)c3ccc(C(=O)O)cc3C2=O)cc1-c1nc2cc(Br)cc(F)c2o1 [Example 71, 2-[3-(5-Bromo-7-fluorobenzoxazol-2-yl)-4-propylaminophenyl]-1,3-dioxo-2,3-dihydro-1H-isoindole-5-carboxylic acid] |
| 0.2 µM | 0.4 µM | COc1ccc(-c2nc3cc(-c4cc5ccccc5s4)ccc3o2)cc1N1C(=O)c2ccc(C(=O)O)cc2C1=O [Example 92, 2-[2-Methoxy-5-[5-(2-benzothiophenyl)benzoxazol-2-yl]phenyl]-1,3-dioxo-2,3-dihydro-1H-isoindole-5-carboxylic acid] |
| 2 µM | 0.8 µM | COc1ccc(-c2nc3cc(-c4ccc(N(C)C)cc4)ccc3o2)cc1N1C(=O)c2ccc(C(=O)O)cc2C1=O [Example 97, 2-[2-Methoxy-5-[5-(4-N,N-dimethylaminophenyl)benzoxazol-2-yl]phenyl]-1,3-dioxo-2,3-dihydro-1H-isoindole-5-carboxylic acid] |
| 2 µM | 0.5 µM | CCCNc1ccc(N2C(=O)c3ccc(C(=O)O)cc3C2=O)cc1-c1nc2cc(-c3cc4ccccc4o3)ccc2o1 [Example 108, 2-[4-Propylamino-3-[5-(2-benzofuranyl)benzoxazol-2-yl]phenyl]-1,3-dioxo-2,3-dihydro-1H-isoindole-5-carboxylic acid] |
| 5 µM | 0.6 µM | CCCNc1ccc(N2C(=O)c3ccc(C(=O)O)cc3C2=O)cc1-c1nc2cc(-c3cc4ccccc4s3)ccc2o1 [Example 110, 2-[4-Propylamino-5-[5-(2-benzothiophenyl)benzoxazol-2-yl]phenyl]-1,3-dioxo-2,3-dihydro-1H-isoindole-5-carboxylic acid] |
